Test results as given in PubChem BioAssay (NCI).
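Method: 48-hour compound exposure of cells in 96-well plates, five concentrations, linear interpolation of endpoints. Definition used: TGI = concentration required for complete inhibition of growth.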

Each molecule was assayed on NCI-H23 lung (assay: growth of human tumour cells (NCI), 48 h).

SMILES	TGI
c1ccc2c(c1)nc1n2CNC1	> 100 µM
Cc1ccc(C)c(COCCOCn2ccc(N)nc2=O)c1	> 100 µM
CN(C)/C=N/S(=O)(=O)c1nn2c(C=O)c(-c3ccc(Cl)cc3)nc2s1	9.81 µM
NNc1nncc2n[nH]nc12	> 100 µM
COC(=O)C1=C(C(=O)OC)c2cc(OC)ccc2C(C(=S)N(C)C)S1 (stereo not given)	> 100 µM
O=C1CCCC2(c3ccccc3)Nc3ccccc3N12 (stereo not given)	> 100 µM

The molecules below were run on MCF7 breast (assay: growth of human tumour cells (NCI), 48 h).

SMILES	TGI
Cc1cc(=O)n2nc(CN3CCCCC3)sc2n1	> 100 µM
CC(=O)OC1(C)C=CC(=O)C=C1	> 100 µM
COc1ccc(C2C3=C(Nc4ncnn42)c2ccccc2OC3c2ccccc2)cc1 (stereo not given)	> 100 µM
O=c1oc2cc(O)ccc2c(O)c1C(c1ccccc1F)c1c(O)c2ccc(O)cc2oc1=O	> 100 µM
COC(=O)C(COC(C)=O)NC(=O)/C=C/c1ccc(O)c(OC(C)=O)c1 (stereo not given)	> 100 µM
CCOP(=O)(CN1CCNCCNCC1)OCC	> 100 µM
CC12CCC([C@H](C(O)C3CCCCC3)C1=O)C2(C)C (stereo not given in full)	> 100 µM
CC(C)Oc1ccc2c(c1)OCC1Cc3ccccc3OC21 (stereo not given)	> 100 µM
O=C1C(Cl)C(c2cccc(Cl)c2)N1c1ccc(-n2c(=S)[nH]c3ccccc3c2=O)cc1 (stereo not given)	37.8 µM
COc1cc2c(cc1OC)CCc1cc(OC)c(OC)cc1CC2	> 100 µM
CC(=O)N[C@@H](Cc1ccc(O)cn1)C(=O)NCc1cccc(Cl)c1	> 100 µM
Cc1nn(C(=O)Cc2ccccc2)c2c1C(c1ccc(N(C)C)cc1)SC(N)=N2 (stereo not given)	> 100 µM
CNc1nc2n(CCO)c(-c3ccccc3)c(-c3ccccc3)nc-2c(=O)n1	> 50 µM
NC(CCC(=O)O)C(=O)N1CCN(c2nc(N3CCCC3)c3nc(Cl)c(NCc4ccccc4)nc3n2)CC1 (stereo not given)	25.6 µM
COC(=O)C(NC(=O)c1ccccc1)c1ccco1 (stereo not given)	> 100 µM
c1ccc2c(c1)nc1n2CNC1	> 100 µM
Cc1ccc(C)c(COCCOCn2ccc(N)nc2=O)c1	> 100 µM
CN(C)/C=N/S(=O)(=O)c1nn2c(C=O)c(-c3ccc(Cl)cc3)nc2s1	2.68 µM
NNc1nncc2n[nH]nc12	> 100 µM
COC(=O)C1=C(C(=O)OC)c2cc(OC)ccc2C(C(=S)N(C)C)S1 (stereo not given)	> 100 µM
O=C1CCCC2(c3ccccc3)Nc3ccccc3N12 (stereo not given)	> 100 µM

Each molecule was assayed on OVCAR-3 ovarian (assay: growth of human tumour cells (NCI), 48 h).

SMILES	TGI
Cc1cc(=O)n2nc(CN3CCCCC3)sc2n1	> 100 µM
CC(=O)OC1(C)C=CC(=O)C=C1	> 100 µM
COc1ccc(C2C3=C(Nc4ncnn42)c2ccccc2OC3c2ccccc2)cc1 (stereo not given)	> 100 µM
O=c1oc2cc(O)ccc2c(O)c1C(c1ccccc1F)c1c(O)c2ccc(O)cc2oc1=O	> 100 µM
COC(=O)C(COC(C)=O)NC(=O)/C=C/c1ccc(O)c(OC(C)=O)c1 (stereo not given)	> 100 µM
CCOP(=O)(CN1CCNCCNCC1)OCC	> 100 µM
CC12CCC([C@H](C(O)C3CCCCC3)C1=O)C2(C)C (stereo not given in full)	> 100 µM
CC(C)Oc1ccc2c(c1)OCC1Cc3ccccc3OC21 (stereo not given)	> 100 µM
O=C1C(Cl)C(c2cccc(Cl)c2)N1c1ccc(-n2c(=S)[nH]c3ccccc3c2=O)cc1 (stereo not given)	> 100 µM
COc1cc2c(cc1OC)CCc1cc(OC)c(OC)cc1CC2	> 100 µM
CC(=O)N[C@@H](Cc1ccc(O)cn1)C(=O)NCc1cccc(Cl)c1	> 100 µM
CNc1nc2n(CCO)c(-c3ccccc3)c(-c3ccccc3)nc-2c(=O)n1	> 50 µM
NC(CCC(=O)O)C(=O)N1CCN(c2nc(N3CCCC3)c3nc(Cl)c(NCc4ccccc4)nc3n2)CC1 (stereo not given)	22.9 µM
COC(=O)C(NC(=O)c1ccccc1)c1ccco1 (stereo not given)	> 100 µM
c1ccc2c(c1)nc1n2CNC1	> 100 µM
Cc1ccc(C)c(COCCOCn2ccc(N)nc2=O)c1	> 100 µM
CN(C)/C=N/S(=O)(=O)c1nn2c(C=O)c(-c3ccc(Cl)cc3)nc2s1	2.87 µM
NNc1nncc2n[nH]nc12	> 100 µM
COC(=O)C1=C(C(=O)OC)c2cc(OC)ccc2C(C(=S)N(C)C)S1 (stereo not given)	> 100 µM
O=C1CCCC2(c3ccccc3)Nc3ccccc3N12 (stereo not given)	> 100 µM

These molecules were tested on HL-60(TB) leukemia (assay: growth of human tumour cells (NCI), 48 h).

SMILES	TGI
Cc1cc(=O)n2nc(CN3CCCCC3)sc2n1	> 100 µM
CC(=O)OC1(C)C=CC(=O)C=C1	> 100 µM
COc1ccc(C2C3=C(Nc4ncnn42)c2ccccc2OC3c2ccccc2)cc1 (stereo not given)	8.92 µM
O=c1oc2cc(O)ccc2c(O)c1C(c1ccccc1F)c1c(O)c2ccc(O)cc2oc1=O	43.7 µM
CCOP(=O)(CN1CCNCCNCC1)OCC	> 100 µM
CC12CCC([C@H](C(O)C3CCCCC3)C1=O)C2(C)C (stereo not given in full)	42.4 µM
CC(C)Oc1ccc2c(c1)OCC1Cc3ccccc3OC21 (stereo not given)	> 100 µM
O=C1C(Cl)C(c2cccc(Cl)c2)N1c1ccc(-n2c(=S)[nH]c3ccccc3c2=O)cc1 (stereo not given)	52.1 µM
CC(=O)N[C@@H](Cc1ccc(O)cn1)C(=O)NCc1cccc(Cl)c1	> 100 µM
Cc1nn(C(=O)Cc2ccccc2)c2c1C(c1ccc(N(C)C)cc1)SC(N)=N2 (stereo not given)	> 100 µM
NC(CCC(=O)O)C(=O)N1CCN(c2nc(N3CCCC3)c3nc(Cl)c(NCc4ccccc4)nc3n2)CC1 (stereo not given)	24.4 µM
COC(=O)C(NC(=O)c1ccccc1)c1ccco1 (stereo not given)	> 100 µM
c1ccc2c(c1)nc1n2CNC1	> 100 µM
Cc1ccc(C)c(COCCOCn2ccc(N)nc2=O)c1	> 100 µM
NNc1nncc2n[nH]nc12	> 100 µM
O=C1CCCC2(c3ccccc3)Nc3ccccc3N12 (stereo not given)	> 100 µM

These molecules were tested on LOX IMVI melanoma (assay: growth of human tumour cells (NCI), 48 h).

SMILES	TGI
Cc1cc(=O)n2nc(CN3CCCCC3)sc2n1	> 100 µM
CC(=O)OC1(C)C=CC(=O)C=C1	> 100 µM
COc1ccc(C2C3=C(Nc4ncnn42)c2ccccc2OC3c2ccccc2)cc1 (stereo not given)	> 100 µM
O=c1oc2cc(O)ccc2c(O)c1C(c1ccccc1F)c1c(O)c2ccc(O)cc2oc1=O	> 100 µM
COC(=O)C(COC(C)=O)NC(=O)/C=C/c1ccc(O)c(OC(C)=O)c1 (stereo not given)	> 100 µM
CCOP(=O)(CN1CCNCCNCC1)OCC	> 100 µM
CC12CCC([C@H](C(O)C3CCCCC3)C1=O)C2(C)C (stereo not given in full)	> 100 µM
CC(C)Oc1ccc2c(c1)OCC1Cc3ccccc3OC21 (stereo not given)	> 100 µM
O=C1C(Cl)C(c2cccc(Cl)c2)N1c1ccc(-n2c(=S)[nH]c3ccccc3c2=O)cc1 (stereo not given)	42.5 µM
COc1cc2c(cc1OC)CCc1cc(OC)c(OC)cc1CC2	> 100 µM
CC(=O)N[C@@H](Cc1ccc(O)cn1)C(=O)NCc1cccc(Cl)c1	> 100 µM
Cc1nn(C(=O)Cc2ccccc2)c2c1C(c1ccc(N(C)C)cc1)SC(N)=N2 (stereo not given)	> 100 µM
CNc1nc2n(CCO)c(-c3ccccc3)c(-c3ccccc3)nc-2c(=O)n1	> 50 µM
NC(CCC(=O)O)C(=O)N1CCN(c2nc(N3CCCC3)c3nc(Cl)c(NCc4ccccc4)nc3n2)CC1 (stereo not given)	32.3 µM
c1ccc2c(c1)nc1n2CNC1	> 100 µM
Cc1ccc(C)c(COCCOCn2ccc(N)nc2=O)c1	> 100 µM
CN(C)/C=N/S(=O)(=O)c1nn2c(C=O)c(-c3ccc(Cl)cc3)nc2s1	2.85 µM
COC(=O)C1=C(C(=O)OC)c2cc(OC)ccc2C(C(=S)N(C)C)S1 (stereo not given)	> 100 µM
O=C1CCCC2(c3ccccc3)Nc3ccccc3N12 (stereo not given)	> 100 µM

What follows are molecules tested on OVCAR-8 ovarian (assay: growth of human tumour cells (NCI), 48 h).

SMILES	TGI
Cc1cc(=O)n2nc(CN3CCCCC3)sc2n1	> 100 µM
CC(=O)OC1(C)C=CC(=O)C=C1	> 100 µM
COc1ccc(C2C3=C(Nc4ncnn42)c2ccccc2OC3c2ccccc2)cc1 (stereo not given)	> 100 µM
O=c1oc2cc(O)ccc2c(O)c1C(c1ccccc1F)c1c(O)c2ccc(O)cc2oc1=O	> 100 µM
COC(=O)C(COC(C)=O)NC(=O)/C=C/c1ccc(O)c(OC(C)=O)c1 (stereo not given)	> 100 µM
CCOP(=O)(CN1CCNCCNCC1)OCC	> 100 µM
CC12CCC([C@H](C(O)C3CCCCC3)C1=O)C2(C)C (stereo not given in full)	> 100 µM
CC(C)Oc1ccc2c(c1)OCC1Cc3ccccc3OC21 (stereo not given)	> 100 µM
O=C1C(Cl)C(c2cccc(Cl)c2)N1c1ccc(-n2c(=S)[nH]c3ccccc3c2=O)cc1 (stereo not given)	> 100 µM
COc1cc2c(cc1OC)CCc1cc(OC)c(OC)cc1CC2	> 100 µM
Cc1nn(C(=O)Cc2ccccc2)c2c1C(c1ccc(N(C)C)cc1)SC(N)=N2 (stereo not given)	> 100 µM
CNc1nc2n(CCO)c(-c3ccccc3)c(-c3ccccc3)nc-2c(=O)n1	> 50 µM
NC(CCC(=O)O)C(=O)N1CCN(c2nc(N3CCCC3)c3nc(Cl)c(NCc4ccccc4)nc3n2)CC1 (stereo not given)	38.6 µM
